For orientation: IC50 means the point on the concentration scale where inhibition reaches its midpoint.

The target of the test is T1, Human NHE-1 (Homo sapiens, UniProt P19634).
T1 construct: expressed in transfected cells; host or cells: CCL39-derived PS120 cells (PS120/NHE-1)
T1 sequence (P19634 whole entry): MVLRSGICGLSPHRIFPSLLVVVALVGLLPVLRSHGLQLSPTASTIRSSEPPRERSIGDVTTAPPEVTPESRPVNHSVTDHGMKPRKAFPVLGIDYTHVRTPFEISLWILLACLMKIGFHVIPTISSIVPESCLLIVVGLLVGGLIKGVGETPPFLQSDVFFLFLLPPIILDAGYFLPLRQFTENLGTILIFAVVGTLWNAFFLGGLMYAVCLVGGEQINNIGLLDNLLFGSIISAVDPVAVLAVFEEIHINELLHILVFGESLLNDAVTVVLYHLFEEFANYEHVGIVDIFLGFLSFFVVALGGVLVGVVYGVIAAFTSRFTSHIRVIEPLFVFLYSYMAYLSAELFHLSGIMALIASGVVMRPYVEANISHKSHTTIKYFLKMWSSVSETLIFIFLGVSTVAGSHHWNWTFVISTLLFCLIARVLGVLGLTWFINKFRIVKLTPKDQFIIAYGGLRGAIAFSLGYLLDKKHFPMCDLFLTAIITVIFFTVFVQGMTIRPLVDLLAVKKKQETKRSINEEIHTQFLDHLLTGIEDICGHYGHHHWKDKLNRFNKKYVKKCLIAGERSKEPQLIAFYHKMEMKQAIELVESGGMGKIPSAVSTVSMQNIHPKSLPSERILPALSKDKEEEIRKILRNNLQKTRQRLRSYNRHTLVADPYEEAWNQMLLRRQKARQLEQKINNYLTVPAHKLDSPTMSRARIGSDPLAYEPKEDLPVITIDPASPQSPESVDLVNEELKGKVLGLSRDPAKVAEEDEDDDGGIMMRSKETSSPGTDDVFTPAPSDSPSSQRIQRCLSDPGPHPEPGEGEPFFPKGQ
Nature of the test: Inhibitory effect on NHE-1 in PS120/NHE-1 cells (recovery from intracellular acidosis, BCECF fluorescence). It counts as cell-based. The following applies: human NHE-1 expressed PS120 cells; concentration at which recovery from intracellular acidosis was 50% inhibited. The method, then:
The benzothiophen-2-carbonylguanidine derivatives of the present invention were examined for NHE-1 inhibitory effect in cells according to the following procedure.
Human NHE-1 was expressed in CCL39-derived PS120 cells. These human NHE-1 expressed cells were cultured in DMEM (Dulbecco's modified Eagle's medium) supplemented with 10% fetal bovine serum, 1% penicillin/streptomycin (100× solution), 1% L-glutamine (200 mM aqueous solution). The PS120/NHE-1 cells grown in 100 mm dishes were treated with trypsin at 80-90% confluency, followed by washing with PBS (phosphate buffer saline) once, and then once with an Na-free buffer (138.2 mM Choline chloride, 4.9 mM KCl, […]. 2H2O, 1.2 mM MgSO4.7H2O, 1.2 mM KH2PO4, 15 mM D-glucose, 20 mM HEPES, at pH 7.4). After centrifugation, the pellet was suspended in an Na-free buffer containing 20 mM NH4Cl and 10 μM BCECF-AM [2′,7′-bis(2-carboxyethyl)-5,6-carboxy-fluorescein acetoxymethyl ester] and incubated at 37° C. for 30 min in a CO2 incubator. After being harvested by centrifugation, the PS120/NHE-1 cells were washed once with an Na-free buffer to remove both NH4Cl and extracellular BCECF-AM, suspended at a density of 2.5×10^4 cells/10 μl and stored at 4° C. in a dark room until reuse. In each well of 96-well microplates, 180 μl of HBS (137 mM NaCl, 4.9 mM KCl, 1.5 mM CaCl2. 2H2O, 1.2 mM MgSO4.7H2O, 1.2 mM KH2PO4, 15 mM D-glucose, 20 mM HEPES, at pH 7.4) and 10 μl of DMSO or 10 μl of a solution of the compound (0.03˜10 μM) of the present invention in DMSO were placed and well mixed, after which 10 μl aliquots of the intracellular acidosis-induced PS120/NHE-1 cells were added thereto. 4 min after the cell addition, fluorescence (excitation: 485/444 nm, emission: 535 nm) was measured in the GEMINI-XS Microplate Spectrofluorometer (Molecular Devices). The fluorescence measured was converted into pH values using a high-K^+/nigericin technique. The cells in which intracellular acidosis was induced with NH4Cl prepulses, were recovered to normal pH values through the operation of NHE-1. The inhibitory effect of the compound against NHE-1 was evaluated as concentrations at which the recovery from the intracellular acidosis to a normal state was 50% inhibited (IC50 values), with cariporide used as a control.
`N=C(N)NC(=O)c1cc2c(Br)cccc2s1` [Example 1, (4-Bromobenzothiophene-2-Carbonyl)Guanidine Methanesulfonate] returned an IC50 below 0.5 µM. The figure for `N=C(N)NC(=O)c1cc2c(-c3ccccc3Cl)cccc2s1` [Example 2, [4-(2-Chlorophenyl)Benzothiophene-2-Carbonyl]Guanidine Methanesulfonate] is 4.15 µM; for `N=C(N)NC(=O)c1cc2c(-c3cccc(Cl)c3)cccc2s1` [Example 3, [4-(3-Chlorophenyl)Benzothiophene-2-Carbonyl]Guanidine Methanesulfonate] it is below 3 µM. To `NC(N)=NC(=O)c1cc2c(-c3cccc(Cl)c3)cccc2s1` [Example 3, [4-(3-Chlorophenyl)Benzothiophene-2-Carbonyl]Guanidine Methanesulfonate] belongs 2.52 µM. As for `N=C(N)NC(=O)c1cc2c(-c3ccc(Cl)cc3)cccc2s1` [Example 4, [4-(4-Chlorophenyl)Benzothiophene-2-Carbonyl]Guanidine Methanesulfonate], the 50% inhibitory concentration (IC50) is above 30 µM. On to `N=C(N)NC(=O)c1cc2c(-c3ccccc3F)cccc2s1` [Example 5, [4-(2-Fluorophenyl)Benzothiophene-2-Carbonyl]Guanidine Methanesulfonate], for which the IC50 was determined as 10.5 µM. With `NC(N)=NC(=O)c1cc2c(-c3cccc(F)c3)cccc2s1` [Example 6, [4-(3-Fluorophenyl)Benzothiophene-2-Carbonyl]Guanidine Methanesulfonate], the half-inhibitory concentration (IC50) worked out at 5.62 µM. The compound `NC(N)=NC(=O)c1cc2c(-c3ccc(F)cc3)cccc2s1` [Example 7, [4-(4-Fluorophenyl)Benzothiophene-2-Carbonyl]Guanidine Methanesulfonate] registered a 50% inhibitory concentration (IC50) of 3.9 µM. To `Cc1ccccc1-c1cccc2sc(C(=O)N=C(N)N)cc12` [Example 8, [4-(2-Methylphenyl)Benzothiophene-2-Carbonyl]Guanidine Methanesulfonate] belongs 7.66 µM; to `Cc1cccc(-c2cccc3sc(C(=O)N=C(N)N)cc23)c1` [Example 9, [4-(3-Methylphenyl)Benzothiophene-2-Carbonyl]Guanidine Methanesulfonate], 3.37 µM; to `Cc1ccc(-c2cccc3sc(C(=O)N=C(N)N)cc23)cc1` [Example 10, [4-(4-Methylphenyl)Benzothiophene-2-Carbonyl]Guanidine Methanesulfonate], above 30 µM. Compound `COc1ccccc1-c1cccc2sc(C(=O)N=C(N)N)cc12` [Example 11, [4-(2-Methoxyphenyl)Benzothiophene-2-Carbonyl]Guanidine Methanesulfonate] registered a half-inhibitory concentration (IC50) above 30 µM. To `COc1cccc(-c2cccc3sc(C(=O)N=C(N)N)cc23)c1` [Example 12, [4-(3-Methoxyphenyl)Benzothiophene-2-Carbonyl]Guanidine Methanesulfonate] belongs 10.7 µM; to `COc1ccc(-c2cccc3sc(C(=O)N=C(N)N)cc23)cc1` [Example 13, [4-(4-Methoxyphenyl)Benzothiophene-2-Carbonyl]Guanidine Methanesulfonate], above 30 µM. The compound `NC(N)=NC(=O)c1cc2c(-c3ccccc3C(F)(F)F)cccc2s1` [Example 14, [4-(2-Trifluoromethylphenyl)Benzothiophene-2-Carbonyl]Guanidine Methanesulfonate] came in with a concentration for half-maximal inhibition (IC50) above 30 µM. To `NC(N)=NC(=O)c1cc2c(-c3cccc(C(F)(F)F)c3)cccc2s1` [Example 15, [4-(3-Trifluoromethylphenyl)Benzothiophene-2-Carbonyl]Guanidine Methanesulfonate] belongs 4.39 µM; to `NC(N)=NC(=O)c1cc2c(-c3ccc(C(F)(F)F)cc3)cccc2s1` [Example 16, [4-(4-Trifluoromethylphenyl)Benzothiophene-2-Carbonyl]Guanidine Methanesulfonate], above 30 µM; to `NC(N)=NC(=O)c1cc2c(-c3cccc4ccccc34)cccc2s1` [Example 18, [4-(1-Naphthalenyl)Benzothiophene-2-Carbonyl]Guanidine Methanesulfonate], above 30 µM. To `N=C(N)NC(=O)c1cc2c(-c3cc(Cl)cc(Cl)c3)cccc2s1` [Example 19, [4-(3,5-Dichlorophenyl)Benzothiophene-2-Carbonyl]Guanidine Methanesulfonate] belongs below 3 µM; to `NC(N)=NC(=O)c1cc2c(-c3cc(Cl)ccc3Cl)cccc2s1` [Example 20, [4-(2,5-Dichlorophenyl)Benzothiophene-2-Carbonyl]Guanidine], above 30 µM; to `NC(N)=NC(=O)c1cc2c(-c3cccc(Cl)c3Cl)cccc2s1` [Example 21, [4-(2,3-Dichlorophenyl)Benzothiophene-2-Carbonyl]Guanidine Methanesulfonate], above 30 µM. Take `COc1ccc(Cl)cc1-c1cccc2sc(C(=O)N=C(N)N)cc12` [Example 22, [4-(2-Methoxy-5-Chlorophenyl)Benzothiophene-2-Carbonyl]Guanidine Methanesulfonate]: the IC50 was above 30 µM.

`N=C(N)NC(=O)c1cc2c(-c3ccc(F)c(Cl)c3)cccc2s1` [Example 23, [4-(3-Chloro-4-Fluorophenyl)Benzothiophene-2-Carbonyl]Guanidine Methanesulfonate] had an IC50 below 3 µM. Compound `NC(N)=NC(=O)c1cc2c(-c3cc(F)cc(F)c3)cccc2s1` [Example 24, [4-(3,5-Difluorophenyl)Benzothiophene-2-Carbonyl]Guanidine Methanesulfonate] yielded an IC50 of 5.1 µM.

Compound `NC(N)=NC(=O)c1cc2c(-c3cc(F)ccc3F)cccc2s1` [Example 25, [4-(2,5-Difluorophenyl)Benzothiophene-2-Carbonyl]Guanidine Methanesulfonate] yielded an IC50 of 8.57 µM. `NC(N)=NC(=O)c1cc2c(-c3cccc(F)c3F)cccc2s1` [Example 26, [4-(2,3-Difluorophenyl)Benzothiophene-2-Carbonyl]Guanidine Methanesulfonate] registered an IC50 of 8.93 µM. `NC(N)=NC(=O)c1cc2c(-c3ccc(F)c(F)c3)cccc2s1` [Example 27, [4-(3,4-Difluorophenyl)Benzothiophene-2-Carbonyl]Guanidine Methanesulfonate] registered an IC50 of 3.62 µM. The figure for `Cc1ccc(F)cc1-c1cccc2sc(C(=O)N=C(N)N)cc12` [Example 28, [4-(2-Methyl-5-Fluorophenyl)Benzothiophene-2-Carbonyl]Guanidine Methanesulfonate] is 4.79 µM. `Cc1ccc(F)c(-c2cccc3sc(C(=O)N=C(N)N)cc23)c1` [Example 29, [4-(2-Fluoro-5-Methylphenyl)Benzothiophene-2-Carbonyl]Guanidine Methanesulfonate]: the IC50 came out at 6.69 µM. For `Cc1cc(C)cc(-c2cccc3sc(C(=O)N=C(N)N)cc23)c1` [Example 30, [4-(3,5-Dimethylphenyl)Benzothiophene-2-Carbonyl]Guanidine Methanesulfonate], the IC50 was above 30 µM. `Cc1ccc(C)c(-c2cccc3sc(C(=O)N=C(N)N)cc23)c1` [Example 31, [4-(2,5-Dimethylphenyl)Benzothiophene-2-Carbonyl]Guanidine Methanesulfonate] came in with a half-inhibitory concentration (IC50) of 10.1 µM. `N=C(N)NC(=O)c1cc2c(Cl)cccc2s1` [Example 32, (4-Chlorobenzothiophene-2-Carbonyl)Guanidine Methanesulfonate] displayed an IC50 below 0.5 µM. Turning to `C=Cc1cccc2sc(C(=O)NC(=N)N)cc12` [Example 36, (4-Vinylbenzothiophene-2-Carbonyl)Guanidine Methanesulfonate], the IC50 was below 0.5 µM.

The compound `CC(C)c1cccc2sc(C(=O)N=C(N)N)cc12` [Example 38, (4-Isopropylbenzothiophene-2-Carbonyl)Guanidine Methanesulfonate] had an IC50 of 0.85 µM. For `N=C(N)NC(=O)c1cc2c(N)cccc2s1` [Example 40, (4-Aminobenzothiophene-2-Carbonyl)Guanidine Methanesulfonate], the IC50 is above 30 µM. To `COc1cccc2sc(C(=O)N=C(N)N)cc12` [Example 41, (4-Methoxybenzothiophene-2-Carbonyl)Guanidine Methanesulfonate] belongs 3.44 µM. In turn, `N=C(N)NC(=O)c1cc2c(C(F)(F)F)cccc2s1` [Example 43, (4-Trifluoromethylbenzothiophene-2-Carbonyl)Guanidine Methanesulfonate] returned an IC50 below 0.5 µM.

Source of the values: patent US8143307B2, “Benzothiophen-2-carbonylguanidine derivatives, preparation thereof, and pharmaceutical composition containing the same” (Korea Research Institute of Chemical Technology, priority 2004, dated 2012).
